{
  "source": "patent US8420682B2",
  "about": "“N-phenylacetamide derivatives, which inhibit the enzyme SOAT-1, and pharmaceutical and cosmetic compositions containing them” (Galderma Research & Development, priority 2009, dated 2013)",
  "biological_target": "T1, enzyme ACAT-1 (Homo sapiens, UniProt P35610)",
  "T1 construct": "endogenous in cells; host or cells: HepG2",
  "T1 sequence (P35610 1-550)": "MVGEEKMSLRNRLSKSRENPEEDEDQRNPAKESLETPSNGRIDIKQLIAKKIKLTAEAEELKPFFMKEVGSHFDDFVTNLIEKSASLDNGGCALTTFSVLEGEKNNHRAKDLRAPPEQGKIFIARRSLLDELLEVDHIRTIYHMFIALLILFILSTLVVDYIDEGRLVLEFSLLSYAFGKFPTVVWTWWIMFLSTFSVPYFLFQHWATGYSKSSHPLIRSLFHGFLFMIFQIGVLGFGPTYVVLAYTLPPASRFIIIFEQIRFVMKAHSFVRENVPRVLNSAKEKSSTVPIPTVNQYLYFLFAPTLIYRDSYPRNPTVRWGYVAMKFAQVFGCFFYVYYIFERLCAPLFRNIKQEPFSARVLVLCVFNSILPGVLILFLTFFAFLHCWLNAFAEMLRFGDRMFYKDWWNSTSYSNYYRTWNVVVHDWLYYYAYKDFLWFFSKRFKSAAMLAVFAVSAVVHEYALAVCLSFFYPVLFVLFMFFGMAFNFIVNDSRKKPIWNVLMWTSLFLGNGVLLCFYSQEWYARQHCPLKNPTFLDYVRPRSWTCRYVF",
  "assay": "HepG2 NBD-cholesterol fluorescence test for inhibitory activity towards the enzyme ACAT-1 (SOAT-1)",
  "type": "cell-based",
  "conditions": "HepG2 cells, NBD-cholesterol 1 μg/ml, incubation 6 hours at 37° C., fluorescence read (excitation 490 nm, emission 540 nm)",
  "protocol": "The compounds (I) according to the invention, and also the pharmaceutically acceptable salts, solvates and/or hydrates thereof, have inhibitory properties on the enzyme SOAT-1. This inhibitory activity on the enzyme SOAT-1 is measured according to a HepG2 primary […] test, as described in Example 7.\nThe compounds of formula (I) according to the invention were subjected to a test for evaluating their inhibitory activity towards the enzyme ACAT-1, inspired by the following publication: “Identification of ACAT1- and ACAT2-specific inhibitors using a novel, cell based fluorescence assay: individual ACAT uniqueness”, J. Lipid. Res. (2004) vol. 45, pages 378-386.\nThe principle of this test is based on the use of NBD-cholesterol, a cholesterol analogue whose fluorescence depends on its environment. When this molecule is in a polar environment, it is weakly fluorescent, whereas in a non-polar environment it is strongly fluorescent. Free NBD-cholesterol becomes inserted in cell membranes and is weakly fluorescent in this polar environment. When NBD-cholesterol is esterified with ACAT, the NBD-cholesterol ester enters non-polar lipid droplets and is then strongly fluorescent.\nThe method below is applied: HepG2 cells are incubated in the presence of NBD-cholesterol (1 μg/ml) and of the test compound of formula (I) in black transparent-bottomed 96-well plates, at a rate of 30 000 cells per well. After incubation for 6 hours at 37° C. under 5% CO2, the medium is removed by turning upside-down and the cells are washed with twice 100 μl of PBS. After addition of 50 μl of lysis buffer (10 mM NaPO4, 1% Igepal), the plates are shaken for 5 minutes and the fluorescence is read (excitation at 490 nm, emission at 540 nm) on a Fusion machine (Perkin-Elmer).",
  "data": [
    {"smiles": "CCOC(=O)c1ccc(N2C(=O)N(CC(=O)Nc3c(C(C)C)cccc3C(C)C)C(=O)C23CCCCC3)cc1", "note": "[Compound 1, 4-{3-[(2,6-Diisopropylphenylcarbamoyl)-methyl]-2,4-dioxo-1,3-diazaspiro[4.5]dec-1-yl}benzoic acid ethyl ester]", "values": [
      {"measurement": "IC50", "result": 2.4, "unit": "nM"}
    ]},
    {"smiles": "CC(C)c1cccc(C(C)C)c1NC(=O)CN1C(=O)N(c2ccc(S(C)(=O)=O)cc2)C2(CCCCC2)C1=O", "note": "[Compound 5, N-(2,6-Diisopropylphenyl)-2-[1-(4-methanesulfonylphenyl)-2,4-dioxo-1,3-diaza-spiro[4.5]dec-3-yl]acetamide]", "values": [
      {"measurement": "IC50", "result": 31, "unit": "nM"}
    ]},
    {"smiles": "CSc1ccc(N2C(=O)N(CC(=O)Nc3c(C(C)C)cccc3C(C)C)C(=O)C23CCCCC3)cc1", "note": "[Compound 4, N-(2,6-diisopropylphenyl)-2-[1-(4-methylsulfanyl-phenyl)-2,4-dioxo-1,3-diazaspiro[4.5]dec-3-yl]acetamide]", "values": [
      {"measurement": "IC50", "result": 1.5, "unit": "nM"}
    ]},
    {"smiles": "Cc1ccc(N2C(=O)N(CC(=O)Nc3c(C(C)C)cccc3C(C)C)C(=O)C23CCCCC3)cc1C#N", "note": "[Compound 3, 2-[1-(3-cyano-4-methylphenyl)-2,4-dioxo-1,3-diaza-spiro[4.5]dec-3-yl]-N-(2,6-diisopropylphenyl)acetamide]", "values": [
      {"measurement": "IC50", "result": 2.5, "unit": "nM"}
    ]},
    {"smiles": "CC(C)c1cccc(C(C)C)c1NC(=O)CN1C(=O)N(c2ccc(C#N)cc2)C2(CCCCC2)C1=O", "note": "[Compound 2, 2-[1-(4-Cyanophenyl)-2,4-dioxo-1,3-diaza-spiro[4.5]dec-3-yl]-N-(2,6-diisopropylphenyl)acetamide]", "values": [
      {"measurement": "IC50", "result": 77, "unit": "nM"}
    ]}
  ]
}
